# Reference: patent US20260159536A1, “AKR1C3-ACTIVATED DNA ALKYLATING AGENT, AND MEDICAL APPLICATION THEREOF” (ASCENTAWITS PHARMACEUTICALS, LTD., priority 2021, published 2026)
# Where two headings read alike, the source gives them in different places.
# Tests used:
# NCI-H1944 = assay: AKR1C3-dependent cytotoxicity, NSCLC cell line NCI-H1944; format: cell-based; conditions: Homo sapiens
# Method: (§1) The tested compound was then added. The compound was dissolved in 100% DMSO at 200 times of the desired final test concentration. When the medicament was added, the compound was further diluted to 4 times of the desired final test concentration by using the complete medium. 50 μL of aliquots of the compound with specific concentration were added to the microwells containing 150 μL of medium, and then the final medicament concentration was obtained. […] The medicament was then washed. […] After the incubation was finished, the Alamar Blue was used to analyze and quantify the living cells.
# NCI-H2228 = assay: AKR1C3-dependent cytotoxicity, NSCLC cell line NCI-H2228; format: cell-based; conditions: Homo sapiens
# Method: as §1
# NCIH1755 = assay: AKR1C3-dependent cytotoxicity, NSCLC cell line NCIH1755; format: cell-based; conditions: Homo sapiens, NCI-H1755
# Method: as §1
# NCI-H1563 = assay: AKR1C3-dependent cytotoxicity, NSCLC cell line NCI-H1563; format: cell-based; conditions: Homo sapiens
# Method: as §1
# CAL12T = assay: AKR1C3-dependent cytotoxicity, NSCLC cell line CAL12T; format: cell-based; conditions: Homo sapiens, CAL-12T
# Method: as §1
# NCI-H522 = assay: AKR1C3-dependent cytotoxicity, NSCLC cell line NCI-H522; format: cell-based; conditions: Homo sapiens
# Method: as §1
# NCI-H23 = assay: AKR1C3-dependent cytotoxicity, NSCLC cell line NCI-H23; format: cell-based; conditions: Homo sapiens
# Method: as §1
# [1] = test system: HuPrime model GA6201 human gastric cancer; conditions: for Tumor volume: AST-3424 5 mg/kg i.v.
# Method: The test was divided into groups of the test drug Isocyclophosphamide 60 mg/kg group, the test drug AST-3424 5 mg/kg group, the test drug A compound 2.5 mg/kg and 5 mg/kg groups, and normal saline (pH 7.0-7.6) vehicle control group, a total of 5 groups, with 5 mice per group.
# In the above dosing regimen, Isocyclophosphamide was designed based on the best dosing regimen with maximum safe dosage as recited in the document (Jessica D. Sun, Qian Liu, Dharmendra Ahluwalia, Damien J. Ferraro, Yan Wang, Don Jung, Mark D. Matteucci, and Charles P. Hart. Comparison of hypoxia-activated prodrug evofosfamide (TH-302) and ifosfamide in preclinical non-small cell lung cancer models [J]. Cancer Biology & Therapy, 2016, 17(4): 371-380).
# [2] = test system: HuPrime model LI6643 human liver cancer; assay: In vivo pharmacodynamics, liver cancer LI6643 PDX model (Compound A, Sorafenib, AST-3424; section 4.7); design: species or system BALB/c nude mice; conditions: for Tumor volume (x ± S): in mm³
# Method: Experiment Instruction: BALB/c nude mice were subcutaneously inoculated with HuPrime® model LI6643 tumor blocks to establish a subcutaneous grafted tumor model of human liver cancer. […] The efficacy was evaluated according to the relative tumor inhibition rate TGI (%), and the safety was evaluated according to the change in body weight and the death of the animals.
# P-gp = target: T1, P-gp (Homo sapiens, UniProt P08183); assay: P-gp substrate evaluation, MDCKII-MDR1 penetration test with or without Verapamil; format: in vitro ADME
# T1 construct: expressed in transfected cells; host or cells: MDCKII-MDR1 cells
# Method: The conditions of the incubator were set as 37° C., 5% CO2, and 95% of the relative humidity.
# After that, the MDCKII-MDR1 cells can be used for the penetration test.
# (1) MDCKII-MDR1 transwell culture plate was taken out from the incubator.
# (6) The upper and lower transportations were pooled and then incubated at 37° C. for 2 h.
# After the sample tubes were vortexed for 10 min, and centrifuged at 3220 g for 30 min. […] Each sample was adopted to the three parallel incubation.
# Efflux Ratio was calculated by the following formula: […]
# Recovery was calculated by the following formula: […]
# [3] = Liver microsome stability, human; format: in vitro ADME; conditions: Human liver microsomes; with the addition of NADPH
# Method: (§2) 1) Two individual experiments were performed.
# (§3) All experiments were performed in duplicate.
# [4] = Liver microsome stability, rat; format: in vitro ADME; conditions: Rat liver microsomes; with the addition of NADPH
# Method: as §2, §3
# [5] = AST-3424 5 mg/kg i.v. QWx2, Day 38
# [6] = 0.3 mg/kg i.v. QDx5, 2 days off, 2 weeks off, QDx5, Day 21
# [7] = 1.25 mg/kg i.v. QWx2, 1 week off, QWx2, Day 21
# [8] = AST-3424 1 mg/kg i.v. QDx5, 2 days off, 2 weeks off, QDx5, Day 21
# T1 sequence (P08183 whole entry): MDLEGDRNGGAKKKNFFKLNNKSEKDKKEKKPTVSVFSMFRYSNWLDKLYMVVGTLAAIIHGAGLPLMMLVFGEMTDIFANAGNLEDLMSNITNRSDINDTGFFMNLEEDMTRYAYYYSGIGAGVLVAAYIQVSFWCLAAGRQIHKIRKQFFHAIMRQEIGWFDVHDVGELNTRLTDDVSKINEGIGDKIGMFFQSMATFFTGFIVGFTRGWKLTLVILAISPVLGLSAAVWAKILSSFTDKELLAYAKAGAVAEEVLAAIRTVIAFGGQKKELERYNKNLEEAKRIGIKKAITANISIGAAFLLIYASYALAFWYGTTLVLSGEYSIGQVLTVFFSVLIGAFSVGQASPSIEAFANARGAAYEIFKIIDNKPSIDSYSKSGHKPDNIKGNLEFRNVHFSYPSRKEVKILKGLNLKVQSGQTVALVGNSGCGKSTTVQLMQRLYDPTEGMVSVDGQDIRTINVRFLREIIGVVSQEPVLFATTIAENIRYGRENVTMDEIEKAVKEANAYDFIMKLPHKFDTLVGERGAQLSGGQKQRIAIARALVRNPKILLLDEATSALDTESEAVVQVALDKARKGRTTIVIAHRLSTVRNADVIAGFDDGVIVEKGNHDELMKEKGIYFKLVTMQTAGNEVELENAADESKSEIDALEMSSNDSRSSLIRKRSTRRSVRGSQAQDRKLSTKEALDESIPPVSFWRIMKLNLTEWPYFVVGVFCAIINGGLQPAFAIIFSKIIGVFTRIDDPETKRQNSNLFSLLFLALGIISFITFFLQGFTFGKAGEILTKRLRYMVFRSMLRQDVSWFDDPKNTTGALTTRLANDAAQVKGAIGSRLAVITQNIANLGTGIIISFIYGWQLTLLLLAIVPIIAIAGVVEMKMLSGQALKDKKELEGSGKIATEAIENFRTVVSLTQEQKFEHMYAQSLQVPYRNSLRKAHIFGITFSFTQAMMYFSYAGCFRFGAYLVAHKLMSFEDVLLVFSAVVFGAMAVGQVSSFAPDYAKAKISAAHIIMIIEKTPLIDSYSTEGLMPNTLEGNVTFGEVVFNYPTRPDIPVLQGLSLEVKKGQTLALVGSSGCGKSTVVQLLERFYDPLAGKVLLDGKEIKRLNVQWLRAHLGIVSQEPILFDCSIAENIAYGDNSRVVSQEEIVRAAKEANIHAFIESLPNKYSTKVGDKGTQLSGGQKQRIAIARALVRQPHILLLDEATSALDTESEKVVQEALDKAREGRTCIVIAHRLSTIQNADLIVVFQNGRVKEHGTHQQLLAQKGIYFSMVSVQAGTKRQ
structure (smiles),measurement,setting,value
C[C@@H](OP(=O)(N1CC1)N1CC1)c1ccc([N+](=O)[O-])c(Oc2cccc(C(=O)N(C)C)c2)c1 [AST-3424],IC50,NCI-H1944,2.3 nM
same,IC50,NCI-H2228,0.21 nM
same,IC50,NCIH1755,8.2 nM
same,IC50,NCI-H1563,2.5 nM
same,IC50,CAL12T,29.1 nM
same,IC50,NCI-H522,> 1000 nM
same,IC50,NCI-H23,> 1000 nM
same,Relative tumor volume (x ± S),[1]; [5],0.11 ± 0.07
same,T/C (%),[1]; [5],1.21%
same,TGI (%),[1]; [5],98.79%
same,Tumor volume (x ± S),[1]; [5],12.65 ± 7.91
same,Tumor volume,[1]; 0 day,94.19 mm^3
same,Tumor volume,[1]; 3 days,114.98 mm^3
same,Tumor volume,[1]; 7 days,84.33 mm^3
same,Tumor volume,[1]; 10 days,77.04 mm^3
same,Tumor volume,[1]; 14 days,63.59 mm^3
same,Tumor volume,[1]; 17 days,52.08 mm^3
same,Tumor volume,[1]; 21 days,45.81 mm^3
same,Tumor volume,[1]; 24 days,40.55 mm^3
same,Tumor volume,[1]; 28 days,30.28 mm^3
same,Tumor volume,[1]; 31 days,23.24 mm^3
same,Tumor volume,[1]; 35 days,18.55 mm^3
same,Tumor volume,[1]; 38 days,12.65 mm^3
same,Tumor volume,[1]; 42 days,13.42 mm^3
same,Tumor volume,[1]; 45 days,10.82 mm^3
same,Tumor volume,[1]; 49 days,8.15 mm^3
same,body weight change / toxic effects,"[1]; GA6201 model, tested doses",no toxic effects
same,Relative tumor volume (x ± S),[2]; [6],1.92 ± 0.2
same,T/C (%),[2]; [6],39.84%
same,TGI (%),[2]; [6],60.16%
same,Tumor volume (x ± S),[2]; [6],250.47 ± 44.00
same,Tumor volume,"[2]; 0.3 mg/kg i.v., Day 0",124.74 mm^3
same,Tumor volume,"[2]; 0.3 mg/kg i.v., Day 3",210.50 mm^3
same,Tumor volume,"[2]; 0.3 mg/kg i.v., Day 7",242.31 mm^3
same,Tumor volume,"[2]; 0.3 mg/kg i.v., Day 10",227.43 mm^3
same,Tumor volume,"[2]; 0.3 mg/kg i.v., Day 14",208.00 mm^3
same,Tumor volume,"[2]; 0.3 mg/kg i.v., Day 17",223.43 mm^3
same,Tumor volume,"[2]; 0.3 mg/kg i.v., Day 21",250.47 mm^3
same,Tumor volume,"[2]; 0.3 mg/kg i.v., Day 24",302.15 mm^3
same,Tumor volume,"[2]; 0.3 mg/kg i.v., Day 28",386.93 mm^3
same,Relative tumor volume (x ± S),[2]; [7],1.36 ± 0.22
same,T/C (%),[2]; [7],28.14%
same,TGI (%),[2]; [7],71.86%
same,Tumor volume (x ± S),[2]; [7],169.64 ± 41.89
same,Tumor volume,"[2]; 1.25 mg/kg i.v., Day 0",124.62 mm^3
same,Tumor volume,"[2]; 1.25 mg/kg i.v., Day 3",205.56 mm^3
same,Tumor volume,"[2]; 1.25 mg/kg i.v., Day 7",217.23 mm^3
same,Tumor volume,"[2]; 1.25 mg/kg i.v., Day 10",216.04 mm^3
same,Tumor volume,"[2]; 1.25 mg/kg i.v., Day 14",187.94 mm^3
same,Tumor volume,"[2]; 1.25 mg/kg i.v., Day 17",176.52 mm^3
same,Tumor volume,"[2]; 1.25 mg/kg i.v., Day 21",169.64 mm^3
same,Tumor volume,"[2]; 1.25 mg/kg i.v., Day 24",174.54 mm^3
same,Tumor volume,"[2]; 1.25 mg/kg i.v., Day 28",146.31 mm^3
same,Relative tumor volume (x ± S),[2]; [8],0.66 ± 0.22
same,T/C (%),[2]; [8],13.68%
same,TGI (%),[2]; [8],86.32%
same,Tumor volume (x ± S),[2]; [8],75.89 ± 21.82
same,Tumor volume,"[2]; AST-3424 1 mg/kg i.v., Day 0",124.32 mm^3
same,Tumor volume,"[2]; AST-3424 1 mg/kg i.v., Day 3",156.70 mm^3
same,Tumor volume,"[2]; AST-3424 1 mg/kg i.v., Day 7",144.82 mm^3
same,Tumor volume,"[2]; AST-3424 1 mg/kg i.v., Day 10",110.44 mm^3
same,Tumor volume,"[2]; AST-3424 1 mg/kg i.v., Day 14",90.12 mm^3
same,Tumor volume,"[2]; AST-3424 1 mg/kg i.v., Day 17",97.62 mm^3
same,Tumor volume,"[2]; AST-3424 1 mg/kg i.v., Day 21",75.89 mm^3
same,Tumor volume,"[2]; AST-3424 1 mg/kg i.v., Day 24",89.34 mm^3
same,Tumor volume,"[2]; AST-3424 1 mg/kg i.v., Day 28",98.43 mm^3
same,P-gp substrate,"P-gp; MDCKII-MDR1, with and without Verapamil",Pgp substrate
same,Papp A→B at 2 h,"P-gp; dog, MDCK-MDR1",1.95 ×10⁻⁶ cm/s
same,Papp B→A at 2 h,"P-gp; dog, MDCK-MDR1",34.5 ×10⁻⁶ cm/s
same,recovery at 2 h,"P-gp; dog, MDCK-MDR1, Verapamil 0 μM, read-out: Recovery (%) AP-BL",79.1%
same,recovery at 2 h,"P-gp; dog, MDCK-MDR1, Verapamil 0 μM, read-out: Recovery (%) BL-AP",90.6%
same,recovery at 2 h,"P-gp; dog, MDCK-MDR1, with Verapamil 100 μM, Verapamil 100 μM, read-out: Recovery (%) AP-BL",92.6%
same,recovery at 2 h,"P-gp; dog, MDCK-MDR1, with Verapamil 100 μM, Verapamil 100 μM, read-out: Recovery (%) BL-AP",96.3%
same,Percentage remaining after 30 minutes,[3],10.65%
same,Percentage remaining after 30 minutes,[4],8.79%
